For 30 compounds, inhibition and IC50 results are on record in patent US9284333B2, “Fused pyrroledicarboxamides and their use as pharmaceuticals” (SANOFI, priority 2012, dated 2016).

Chain of Human TASK-1 channels (O14649 whole entry): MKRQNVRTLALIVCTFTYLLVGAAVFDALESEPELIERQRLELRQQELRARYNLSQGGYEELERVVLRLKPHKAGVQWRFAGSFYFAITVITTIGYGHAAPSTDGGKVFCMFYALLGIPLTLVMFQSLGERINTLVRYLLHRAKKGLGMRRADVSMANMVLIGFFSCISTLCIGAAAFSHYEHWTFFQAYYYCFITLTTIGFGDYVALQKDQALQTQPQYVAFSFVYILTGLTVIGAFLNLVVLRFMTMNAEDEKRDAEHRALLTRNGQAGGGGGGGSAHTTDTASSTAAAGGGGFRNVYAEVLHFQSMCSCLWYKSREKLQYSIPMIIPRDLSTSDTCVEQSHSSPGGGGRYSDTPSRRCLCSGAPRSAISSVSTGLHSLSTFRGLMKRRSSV

The target in the first assay is Human TASK-1 channels (Homo sapiens (Human), UniProt O14649). Put plainly: Determination of the activity on the TASK-1 channel in Xenopus oocytes (two-microelectrode voltage clamp). The assay is classed as cell-based. As to conditions: compound concentration 5 μM. The procedure, abridged:
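Current during 500 ms pulses to 40 mV from a −90 mV hold was recorded in oocytes expressing human TASK-1 for two days after cRNA injection. Compounds were added cumulatively to the ND96 bath (pH 7.4, room temperature). IC50 came from dose-response fitting of inhibition relative to pre-compound current.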
In general, inhibition refers to the relative decrease from the control value, in per cent. `CC[C@@H](NC(=O)c1cc(C(=O)N2CC[C@@H](C#N)C2)n2c1COCC2)c1ccccc1` [16fy, 6-((R)-3-Cyano-pyrrolidine-1-carbonyl)-3,4-dihydro-1H-pyrrolo[2,1-c][1,4]oxazine-8-carboxylic acid ((R)-1-phenyl-propyl)-amide] returned an inhibition at 5 µM of 59%. Same read-out and setting: the same measure for `CC[C@H](NC(=O)c1cc(C(=O)N2CCC[C@@H]2C)n2c1COCC2)c1ccc(F)c(C(F)(F)F)c1` [16bp]: 90%.

The same assay, now with this note: human TASK-1 expressed in Xenopus oocytes, room temperature; read-out: IC50 value for TASK-1 inhibition.
What is called IC50 is the concentration at which inhibition is half-maximal. For the compound `CC[C@@H](NC(=O)c1cc(C(=O)NC2CCCCC2)n2c1CCCC2)c1ccccc1` [16ml, 5,6,7,8-Tetrahydro-indolizine-1,3-dicarboxylic acid 3-cyclohexylamide 1-[((R)-1-phenyl-propyl)-amide]], the concentration for half-maximal inhibition (IC50) worked out at 130 nM. For the compound `CC[C@@H](NC(=O)c1cc(C(=O)N2CC3CC3C2)n2c1COCC2)c1ccccc1` (stereo partly drawn) [16fe, 6-(3-Aza-bicyclo[3.1.0]hexane-3-carbonyl)-3,4-dihydro-1H-pyrrolo[2,1-c][1,4]oxazine-8-carboxylic acid ((R)-1-phenyl-propyl)-amide], the IC50 stood at 150 nM. In the case of `CC[C@@H](NC(=O)c1cc(C(=O)N[C@H](C)c2ccc(OC)cc2)n2c1CCCC2)c1ccccc1` [16mt, 5,6,7,8-Tetrahydro-indolizine-1,3-dicarboxylic acid 3-{[(R)-1-(4-methoxy-phenyl)-ethyl]-amide} 1-[((R)-1-phenyl-propyl)-amide]], the IC50 was determined as 320 nM. The same measure, in the same setting: the same measure for `CC[C@@H](NC(=O)c1cc(C(=O)N[C@H](CC)c2cccc(NS(C)(=O)=O)c2)n2c1COCC2)c1ccccc1` [16ri, 3,4-Dihydro-1H-pyrrolo[2,1-c][1,4]oxazine-6,8-dicarboxylic acid 6-{[(R)-1-(3-methanesulfonylamino-phenyl)-propyl]-amide} 8-[((R)-1-phenyl-propyl)-amide]]: 4300 nM. On the same count and under the same terms, to `CC[C@@H](NC(=O)c1cc(C(=O)NC(C)c2ncccn2)c2n1CCOC2)c1ccccc1` (mixture of isomers) [16jz, 3,4-Dihydro-1H-pyrrolo[2,1-c][1,4]oxazine-6,8-dicarboxylic acid 6-[((R)-1-phenyl-propyl)-amide] 8-[(1-pyrimidin-2-yl-ethyl)-amide]] belongs 300 nM; to `CCC(NC(=O)c1cc(C(=O)N2CCC[C@@H]2C)n2c1COCC2)c1nccs1` (stereo partly drawn) [16ae, 6-((S)-2-Methyl-pyrrolidine-1-carbonyl)-3,4-dihydro-1H-pyrroIo[2,1-c][1,4]oxazine-8-carboxylic acid (1-thiazol-2-yl-propyl)-amide], 670 nM; to `O=C(N[C@H](c1ccc(F)cc1)C1CC1)c1cc(C(=O)N2CCCC2)n2c1COCC2` [16dh, 6-(Pyrrolidine-1-carbonyl)-3,4-dihydro-1H-pyrrolo[2,1-c][1,4]oxazine-8-carboxylic acid [(S)-cyclopropyl-(4-fluoro-phenyl)-methyl]-amide], 290 nM. On to `O=C(N[C@@H](c1ccc(F)cc1)C1CC1)c1cc(C(=O)N2CCCC2)n2c1COCC2` [16dg, 6-(Pyrrolidine-1-carbonyl)-3,4-dihydro-1H-pyrrolo[2,1-c][1,4]oxazine-8-carboxylic acid [(R)-cyclopropyl-(4-fluoro-phenyl)-methyl]-amide], for which the IC50 stood at 300 nM.

For the compound `CC[C@@H](NC(=O)c1cc(C(=O)N[C@H](CC)c2ccccc2)n2c1COCC2)c1ccccc1` [16i, 3,4-Dihydro-1H-pyrrolo[2,1-c][1,4]oxazine-6,8-dicarboxylic acid bis-[((R)-1-phenyl-propyl)-amide]], the IC50 came out at 160 nM. With `CCC(NC(=O)c1cc(C(=O)N[C@H](CC)c2ccccc2)c2n1CCOC2)c1ccc(C)nc1` (stereo partly drawn) [16ho, 3,4-Dihydro-1H-pyrrolo[2,1-c][1,4]oxazine-6,8-dicarboxylic acid 6-{[1-(6-methyl-pyridin-3-yl)-propyl]-amide} 8-[((R)-1-phenyl-propyl)-amide]], the IC50 worked out at 730 nM. Still for that read-out and setting: to `CC[C@@H](NC(=O)c1cc(C(=O)N[C@@H](C)c2ccc(F)cc2)n2c1COCC2)c1ncccn1` [16ef, 3,4-Dihydro-1H-pyrrolo[2,1-c][1,4]oxazine-6,8-dicarboxylic acid 6-{[(S)-1-(4-fluoro-phenyl)-ethyl]-amide} 8-[((R)-1-pyrimidin-2-yl-propyl)-amide]] belongs 820 nM; to `CC[C@@H](NC(=O)c1cc(C(=O)N2CCC[C@@H]2C(F)(F)F)n2c1COCC2)c1ccccc1` [16eu, 6-((R)-2-Trifluoromethyl-pyrrolidine-1-carbonyl)-3,4-dihydro-1H-pyrrolo[2,1-c][1,4]oxazine-8-carboxylic acid ((R)-1-phenyl-propyl)-amide], 49 nM. Consider `CC[C@@H](NC(=O)c1cc(C(=O)NCc2ccccc2S(C)(=O)=O)n2c1COCC2)c1ccccc1` [16gx, 3,4-Dihydro-1H-pyrrolo[2,1-c][1,4]oxazine-6,8-dicarboxylic acid 6-(2-methanesulfonyl-benzylamide) 8-[((R)-1-phenyl-propyl)-amide]], for which the IC50 is 430 nM. `CC[C@@H](NC(=O)c1cc(C(=O)N[C@H](CC)c2cccc(OC)n2)n2c1COCC2)c1ccccc1` [16ic, 3,4-dihydro-1H-pyrrolo[2,1-c][1,4]oxazine-6,8-dicarboxylic acid 6-{[(R)-1-(6-methoxy-pyridin-2-yl)-propyl]-amide} 8-[((R)-1-phenyl-propyl)-amide]]: the IC50 stood at 40 nM. On the same count and under the same terms, the same measure for `CC[C@@H](NC(=O)c1cc(C(=O)N2CCC(F)(F)CC2)n2c1CCCC2)c1ccccc1` [16mo, 3-(4,4-Difluoro-piperidine-1-carbonyl)-5,6,7,8-tetrahydro-indolizine-1-carboxylic acid ((R)-1-phenyl-propyl)-amide]: 1900 nM; for `CC[C@@H](NC(=O)c1cc(C(=O)N[C@H](C)c2ccc(F)cc2)n2c1COCC2)c1cccnc1C(F)(F)F` [16dt, 3,4-Dihydro-1H-pyrrolo[2,1-c][1,4]oxazine-6,8-dicarboxylic acid 6-{[(R)-1-(4-fluoro-phenyl)-ethyl]-amide} 8-{[(R)-1-(2-trifluoromethyl-pyridin-3-yl)-propyl]-amide}]: 1000 nM.

`CC[C@@H](NC(=O)c1cc(C(=O)N2CCCC2c2cc(C)no2)n2c1COCC2)c1ccccc1` (stereo partly drawn) [16eq, 6-[2-(3-Methyl-isoxazol-5-yl)-pyrrolidine-1-carbonyl]-3,4-dihydro-1H-pyrrolo[2,1-c][1,4]oxazine-8-carboxylic acid ((R)-1-phenyl-propyl)-amide]: the IC50 turned out to be 480 nM.

As to `CC[C@@H](NC(=O)c1cc(C(=O)N[C@H](C)c2ccc(F)cc2)n2c1COCC2)c1cnc(OC)cn1` [16dw, 3,4-Dihydro-1H-pyrrolo[2,1-c][1,4]oxazine-6,8-dicarboxylic acid 6-{[(R)-1-(4-fluoro-phenyl)-ethyl]-amide} 8-{[(R)-1-(5-methoxy-pyrazin-2-yl)-propyl]-amide}], the IC50 came out at 48 nM. Still for that read-out and setting: the same measure for `CC[C@H](NC(=O)c1cc(C(=O)N[C@@H](CC)c2ncccn2)c2n1CCOC2)c1ccccc1` [16kc]: 1800 nM; for `CC[C@@H](NC(=O)c1cc(C(=O)N2CCC[C@@H]2C(C)OC)n2c1COCC2)c1ccccc1` (stereo partly drawn) [16ez, 6-[(R)-2-(1-Methoxy-ethyl)-pyrrolidine-1-carbonyl]-3,4-dihydro-1H-pyrrolo[2,1-c][1,4]oxazine-8-carboxylic acid ((R)-1-phenyl-propyl)-amide]: 500 nM.

Consider `CC[C@@H](NC(=O)c1cc(C(=O)NCc2cnccn2)n2c1C(C)OCC2)c1ccccc1` (stereo partly drawn) [16li, 1-Methyl-3,4-dihydro-1H-pyrrolo[2,1-c][1,4]oxazine-6,8-dicarboxylic acid 8-[((R)-1-phenyl-propyl)-amide] 6-[(pyrazin-2-ylmethyl)-amide]], for which the IC50 is 900 nM. The same measure, in the same setting: to `O=C(NC(CC(F)(F)F)c1ccccc1)c1cc(C(=O)N2CCCC2)n2c1COCC2` (stereo not drawn) [16dj, 6-(Pyrrolidine-1-carbonyl)-3,4-dihydro-1H-pyrrolo[2,1-c][1,4]oxazine-8-carboxylic acid (3,3,3-trifluoro-1-phenyl-propyl)-amide] belongs 1900 nM; to `CCOC(=O)[C@H]1CCCN1C(=O)c1cc(C(=O)N[C@H](CC)c2ccccc2)c2n1CCOC2` [16ff], 540 nM.

With `CC[C@H](NC(=O)c1cc(C(=O)N[C@H](CC)c2ccccc2)c2n1CCOC2)c1ccc(OC)nc1` [16hp, 3,4-Dihydro-1H-pyrrolo[2,1-c][1,4]oxazine-6,8-dicarboxylic acid 6-{[(S)-1-(6-methoxy-pyridin-3-yl)-propyl]-amide} 8-[((R)-1-phenyl-propyl)-amide]], the IC50 amounted to 560 nM.

As to `CC[C@@H](NC(=O)c1cc(C(=O)NCCc2ccc(F)cc2)n2c1CCCC2)c1ccccc1` [16mx, 5,6,7,8-Tetrahydro-indolizine-1,3-dicarboxylic acid 3-{[2-(4-fluoro-phenyl)-ethyl]-amide} 1-[((R)-1-phenyl-propyl)-amide]], the IC50 was determined as 97 nM. `CC[C@@H](NC(=O)c1cc(C(=O)N[C@@H]2CCc3ccccc32)n2c1COCC2)c1ccccc1` [16gp, 3,4-Dihydro-1H-pyrrolo[2,1-c][1,4]oxazine-6,8-dicarboxylic acid 6-(R)-indan-1-ylamide 8-[((R)-1-phenyl-propyl)-amide]]: the IC50 worked out at 570 nM.

As for `CC[C@@H](NC(=O)c1cc(C(=O)N2CCC[C@@H]2c2ccccc2)n2c1CCCC2)c1ccccc1` [16mm, 3-((R)-2-Phenyl-pyrrolidine-1-carbonyl)-5,6,7,8-tetrahydro-indolizine-1-carboxylic acid ((R)-1-phenyl-propyl)-amide], the IC50 amounted to 120 nM. On the same count and under the same terms, the same measure for `CC[C@@H](NC(=O)c1cc(C(=O)N(C)Cc2ncccn2)n2c1COCC2)c1ccccc1` [16jc, 3,4-Dihydro-1H-pyrrolo[2,1-c][1,4]oxazine-6,8-dicarboxylic acid 6-(methyl-pyrimidin-2-ylmethyl-amide) 8-[((R)-1-phenyl-propyl)-amide]]: 2700 nM.
